Experimental data from US20230000842A1, “METHODS OF TREATING CARTILAGE DISORDERS THROUGH INHIBITION OF CLK AND DYRK” (SAMUMED, LLC, priority 2019, published 2023).
pEC50: −log10 of the molar value. Where two headings read alike, the source gives them in different places.

What was measured:
CLK2 kinase = CLK2 kinase (Homo sapiens, UniProt P49760); test: CLK2 kinase activity assay (Z-lyte FRET); assay type: biochemical; details: Z-lyte Ser/Thr 6 peptide, 60 μM ATP, 1 h at room temperature;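 note: FRET read-out as coumarin to fluorescein emission ratio, unphosphorylated peptide as 0% and phosphorylated peptide as 100% controls, duplicate reactions, non-linear regression fit of dose-response curves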
CLK3 kinase = CLK3 kinase (Homo sapiens, UniProt P49761); test: CLK3 kinase activity assay (Z-lyte FRET); assay type: biochemical; details: Z-lyte Ser/Thr 18 peptide, 156 μM ATP, 1 h at room temperature;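 note: kinase activity read as coumarin/fluorescein emission ratio by FRET, unphosphorylated peptide as 0% and phosphorylated peptide as 100% control, values from non-linear regression of dose-response curves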
[1] = system: primary human mesenchymal stem cells (hMSCs); test: Chondrogenesis screening using primary human mesenchymal stem cells; assay type: cell-based; details: hMSC chondrogenesis; for EC50: concentration required to induce 50% levels of chondrogenesis with TGF-β3 as positive control, read-out: Conc (nM) of 50% TGF-β3 activity; for Emax: read-out: Max. Activity as % TGF-β3 activity
Excerpt: Representative compounds were screened using primary human mesenchymal stem cells (hMSCs) to determine their ability to induce chondrogenesis (process by which cartilage is developed).
Human Mesenchymal Stem Cell Culture: Primary human mesenchymal stem cells (hMSCs) were purchased from Lonza (Walkersville, Md.) and expanded in Mesenchymal Stem Cell Growth Media (Lonza). Cells between passage 3 and 6 were used for the experiments.
Area of nodules in each well was normalized to the average of 3 DMSO treated wells on the same plate using Excel (Microsoft Inc.). The normalized averages (fold change over DMSO) of 2 or 3 replicate wells for each compound concentration were calculated. Due to solubility limitations of some of the compounds, curve fitting was incomplete leading to inaccurate EC50 determinations.
Using TGF-β3 as a positive control, the concentration of representative compounds required to induce 50% levels of chondrogenesis is reported. In addition, the maximum activity of each compound and the respective dose that each compound reached maximum chondrogenesis activity is reported.

[2] = system: Wnt pathway activity (SW480 colon carcinoma cells stably expressing the Sp5-Luc reporter); test: Wnt pathway activity screening assay (Sp5-Luc reporter gene assay); details: SW480 cells stably expressing Sp5-Luc reporter, 10-point dose-response from 10 μM, 36 to 48 hours
Experimental: The screening assay for Wnt pathway activity is described as follows.
SW480 colon carcinoma cells were transduced with a lentiviral vector expressing luciferase with a human Sp5 promoter consisting of a sequence of eight TCF/LEF binding sites. […] These stably transduced SW480 cells were expanded in cell culture and used for all further screening activities. Each compound was dissolved in DMSO as a 10 mM stock and used to prepare compound source plates. Serial dilution (1:3, 10-point dose-response curves starting from 10 μM) and compound transfer was performed using the ECHO 550 (Labcyte, Sunnyvale, Calif.) into 384-well white solid bottom assay plates (Greiner Bio-One) with appropriate DMSO backfill for a final DMSO concentration of 0.1%. […] Following incubation, 15 μl of BriteLite Plus luminescence reagent (Perkin Elmer) was added to each well of the 384-well assay plates. The plates were placed on an orbital shaker for 2 min and then luminescence was quantified using the Envision (Perkin Elmer) plate reader.

[3] = Homo sapiens, Mesenchymal stem cells
[4] = Homo sapiens, Mesenchymal stem cells, maximum activity relative to TGF-β3 (10 ng/mL) positive control

Sequence of CLK2 kinase (P49760 whole entry): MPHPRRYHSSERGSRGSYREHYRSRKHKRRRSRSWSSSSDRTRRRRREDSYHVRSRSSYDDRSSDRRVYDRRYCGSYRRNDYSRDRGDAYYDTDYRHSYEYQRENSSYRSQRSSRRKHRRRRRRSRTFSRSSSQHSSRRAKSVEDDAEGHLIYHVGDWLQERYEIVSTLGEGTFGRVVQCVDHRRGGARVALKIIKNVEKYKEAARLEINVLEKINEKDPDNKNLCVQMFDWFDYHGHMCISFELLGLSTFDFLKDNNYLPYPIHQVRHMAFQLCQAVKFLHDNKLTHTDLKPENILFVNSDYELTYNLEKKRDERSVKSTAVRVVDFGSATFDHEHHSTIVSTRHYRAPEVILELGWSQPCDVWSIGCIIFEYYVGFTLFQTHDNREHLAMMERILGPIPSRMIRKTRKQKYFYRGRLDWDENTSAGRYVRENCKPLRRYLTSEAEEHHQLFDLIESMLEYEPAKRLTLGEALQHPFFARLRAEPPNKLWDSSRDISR
Sequence of CLK3 kinase (P49761 whole entry): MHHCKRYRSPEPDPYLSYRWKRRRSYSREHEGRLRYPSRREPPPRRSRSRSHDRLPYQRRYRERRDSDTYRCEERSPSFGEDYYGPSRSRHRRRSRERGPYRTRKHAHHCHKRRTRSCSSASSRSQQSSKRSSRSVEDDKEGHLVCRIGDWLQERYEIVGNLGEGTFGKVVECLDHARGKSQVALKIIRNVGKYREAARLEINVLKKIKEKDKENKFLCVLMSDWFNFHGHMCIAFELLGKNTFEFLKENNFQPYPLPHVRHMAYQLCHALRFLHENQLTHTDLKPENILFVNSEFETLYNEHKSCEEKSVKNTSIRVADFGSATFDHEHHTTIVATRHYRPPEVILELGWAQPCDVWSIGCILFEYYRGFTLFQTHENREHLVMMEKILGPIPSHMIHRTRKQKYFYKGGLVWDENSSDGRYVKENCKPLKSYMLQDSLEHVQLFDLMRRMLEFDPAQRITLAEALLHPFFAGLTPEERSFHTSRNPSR

pEC50 (CLK2 kinase)	pEC50 (CLK3 kinase)	EC50 [1, 3] [nM]	pEC50 ([2]; Homo sapiens, SW480, Table 4)	EC50 [1] [nM]	pEC50 ([2]; Table 4)	SMILES	Emax [1, 4] [%]	Max. Activity as % TGF-β3 activity ([1]; maximum activity relative to TGF-β3 (10 ng/mL) positive control) [%]
8.40	7.39	100	7.09	–	–	CN(C)Cc1cncc(-c2cc3c(-c4nc5c(-c6cccc(F)c6)cccc5[nH]4)n[nH]c3cn2)c1 [compound 135]	311	–
8.70	6.96	30	6.20	–	–	CN(C)Cc1cncc(-c2ccc3[nH]nc(-c4nc5c(-c6cccc(F)c6)cccc5[nH]4)c3n2)c1 [compound 136]	84.6	–
9.00	8.15	30	7.89	–	–	CN(C)Cc1cncc(-c2cnc3[nH]nc(-c4nc5c(-c6cccc(F)c6)cncc5[nH]4)c3c2)c1 [compound 137]	183	–
9.00	6.71	30	5.98	–	–	CN(C)Cc1cncc(-c2ccc3[nH]nc(-c4nc5c(-c6cccc(F)c6)nccc5[nH]4)c3n2)c1 [compound 138]	75.6	–
8.52	7.10	–	5.98	–	–	CN(C)Cc1cncc(-c2ccc3[nH]nc(-c4nc5c(-c6cccc(F)c6)cncc5[nH]4)c3n2)c1 [compound 139]	16.7	–
8.05	7.48	–	7.58	30	–	Fc1cccc(-c2cncc3[nH]c(-c4n[nH]c5ccc(-c6cncc(CN7CCC(F)(F)C7)c6)cc45)nc23)c1 [compound 141]	102	–
7.68	7.05	–	–	10	7.72	Fc1cccc(-c2cncc3[nH]c(-c4n[nH]c5ccc(-c6cncc(CN7CCC(F)(F)C7)c6)cc45)nc23)c1 [compound 142]	–	85.77
7.77	7.35	–	7.96	–	–	Oc1cncc(-c2ccc3[nH]nc(-c4nc5c(-c6cccc(F)c6)cccc5[nH]4)c3c2)c1 [compound 143]	52.2	–
8.30	7.03	6.86	6.34	–	–	Oc1cncc(-c2ccc3[nH]nc(-c4nc5c(-c6cccc(F)c6)nccc5[nH]4)c3n2)c1 [compound 144]	56.7	–
8.30	7.13	20.6	< 5.00	–	–	Oc1cncc(-c2ccc3[nH]nc(-c4nc5c(-c6cccc(F)c6)cncc5[nH]4)c3n2)c1 [compound 145]	53.6	–
8.30	6.95	2.29	6.43	–	–	Oc1cncc(-c2ccc3[nH]nc(-c4nc5c(-c6cccc(F)c6)ccnc5[nH]4)c3n2)c1 [compound 146]	59.3	–
8.05	6.31	300	7.50	–	–	COc1cncc(-c2cc3c(-c4nc5c(-c6cccc(F)c6)cncc5[nH]4)n[nH]c3cn2)c1 [compound 147]	140	–
8.40	6.91	20.6	6.92	–	–	COc1cncc(-c2ccc3[nH]nc(-c4nc5c(-c6cccc(F)c6)nccc5[nH]4)c3n2)c1 [compound 148]	60.4	–
7.96	7.03	100	7.52	–	–	Fc1cccc(-c2ccnc3[nH]c(-c4n[nH]c5ncc(-c6cn[nH]c6)cc45)nc23)c1 [compound 153]	110	–
7.85	6.86	30	7.95	–	–	Cn1cc(-c2cnc3[nH]nc(-c4nc5c(-c6cccc(F)c6)nccc5[nH]4)c3c2)cn1 [compound 155]	74.9	–
8.00	5.74	100	8.00	–	–	Cn1cc(-c2cc3c(-c4nc5c(-c6cccc(F)c6)nccc5[nH]4)n[nH]c3cn2)cn1 [compound 156]	110	–
8.70	6.38	100	7.15	–	–	Cn1cc(-c2cc3c(-c4nc5c(-c6cccc(F)c6)cncc5[nH]4)n[nH]c3cn2)cn1 [compound 157]	71	–
8.52	7.08	10	6.82	–	–	Cc1ncc(-c2ccc3[nH]nc(-c4nc5c(-c6cccc(F)c6)cccc5[nH]4)c3n2)n1C [compound 158]	112	–
9.00	7.47	100	7.90	–	–	Cc1ncc(-c2cnc3[nH]nc(-c4nc5c(-c6cccc(F)c6)nccc5[nH]4)c3c2)n1C [compound 159]	152	–
8.52	7.43	300	7.96	–	–	CCC(=O)Nc1cncc(-c2cnc3[nH]nc(-c4nc5c(-c6ccc(F)cc6)cncc5[nH]4)c3c2)c1 [compound 160]	143	–
7.77	6.98	100	8.40	–	–	CC(C)(C)C(=O)Nc1cncc(-c2ccc3[nH]nc(-c4nc5c(-c6ccc(F)cc6)cncc5[nH]4)c3c2)c1 [compound 161]	128	–
8.10	5.01	–	5.56	–	–	CC(C)(C)C(=O)Nc1cncc(-c2ccc3[nH]nc(-c4nc5c(-c6ccc(F)cc6)cncc5[nH]4)c3n2)c1 [compound 162]	41.8	–
7.49	7.12	100	7.24	–	–	CC(C)CC(=O)Nc1cncc(-c2ccc3[nH]nc(-c4nc5c(-c6ccc(F)cc6)cncc5[nH]4)c3c2)c1 [compound 163]	125	–
7.55	7.06	100	8.24	–	–	O=C(Nc1cncc(-c2ccc3[nH]nc(-c4nc5c(-c6ccc(F)cc6)cncc5[nH]4)c3c2)c1)C1CCC1 [compound 164]	203	–
8.70	7.70	100	8.06	–	–	Nc1cncc(-c2ccc3[nH]nc(-c4nc5c(-c6ccccc6F)nccc5[nH]4)c3c2)c1 [compound 165]	61.9	–
8.52	6.68	30	5.97	–	–	Nc1cncc(-c2ccc3[nH]nc(-c4nc5c(-c6ccccc6F)cccc5[nH]4)c3n2)c1 [compound 166]	81.8	–
8.40	7.72	30	8.70	–	–	Nc1cncc(-c2ccc3[nH]nc(-c4nc5c(-c6ccccc6F)ccnc5[nH]4)c3c2)c1 [compound 167]	113	–
7.48	7.12	300	7.91	–	–	Nc1cncc(-c2cnc3[nH]nc(-c4nc5c(-c6ccccc6F)ccnc5[nH]4)c3c2)c1 [compound 168]	59.9	–
9.00	7.30	10	< 5.00	–	–	Nc1cncc(-c2ccc3[nH]nc(-c4nc5c(-c6ccccc6F)nccc5[nH]4)c3n2)c1 [compound 169]	108	–
9.00	7.92	10	< 5.00	–	–	Nc1cncc(-c2ccc3[nH]nc(-c4nc5c(-c6ccccc6F)cncc5[nH]4)c3n2)c1 [compound 170]	98.2	–
